Experimental data reported in patent publication US5639766A, “N-substituted azaheterocyclic carboxylic acids and esters thereof” (Novo Nordisk A/S, priority 1993, dated 1997).
Where a name gives a salt, the structure may show the parent alone.

Experiments:
[1] = system: GABA uptake from the synaptic cleft into presynaptic nerve terminals and glial cells; conditions: background statement; cited from earlier work
[2] = background statement; cited from earlier work
[^3 H]-GABA uptake = In vitro inhibition of [^3 H]-GABA uptake in rat cortical tissue; format: biochemical, Male wistar rat; conditions: rat cortical tissue homogenate, pH 7.5, 60 minutes at 30° C.
Protocol: Values for in vitro inhibition of [^3 H]-GABA uptake for the invention compounds were assessed essentially by the method of Fjalland (Acta Pharmacol. Toxicol. 1978, 42, 73-76). Male wistar rat cortical tissue was gently homogenized by hand using a glass/PTFE homogenizer in 10 volumes of 0.32M sucrose. Incubation was performed in a 40 mM tris HCl buffer (pH 7.5 at 30° C.) containing […], 4 mM MgSO4, […] and 10 mM glucose, for 60 minutes at 30° C. Values for inhibition of GABA uptake for some representative compounds are recorded in Table I.

GABA uptake = conditions: oral; Yunger, L. M. et al., 1984; cited from earlier work

Molecule | IC50 ([^3 H]-GABA uptake) [nM] | orally active inhibitors of GABA uptake (GABA uptake) | also measured
O=C(O)C1CCCNC1 (centres unmarked) [3-piperidinecarboxylic acid] |  |  | inhibitor of GABA uptake [1]: well-known and potent inhibitor of GABA uptake; cross the blood-brain barrier [2]: unable to cross the blood-brain barrier
O=C(O)[C@@H]1CCCN(CCON=C2CCCCC2c2ccccc2)C1 (stereo partly drawn) [Example 1, (R)-1-(2-(((2-Phenylcyclohexylidene)amino)oxy)ethyl)-3-piperidinecarboxylicacid hydrochloride] | 332 |  | 
O=C(O)[C@@H]1CCCN(CCON=C2CCCC=C2c2ccccc2)C1 [Example 2, (R)-1-(2-(((2-Phenylcyclohex-2-enylidene)amino)oxy)ethyl)-3-piperidinecarboxylic acid hydrochloride] | 417 |  | 
O=C(O)[C@@H]1CCCN(CCON=C2c3ccccc3CCC2c2ccccc2)C1 (stereo partly drawn) [Example 4, (R)-1-(2-(((2-Phenyl-1,2,3,4-tetrahydro-1-naphthylidene)amino)oxy)ethyl)-3-piperidinecarboxylic acid hydrochloride] | 819 |  | 
O=C(O)[C@@H]1CCCN(CCON=C2CC(c3ccccc3)c3ccccc32)C1 (stereo partly drawn) [Example 5, (R)-1-(2-(((3-Phenyl-1-indanylidene)amino)oxy)ethyl)-3-piperidinecarboxylicacid hydrochloride] | 1380 |  | 
O=C(O)C1CCCN(CCC=C(c2ccccc2)c2ccccc2)C1 (centres unmarked) [SK&F 89976A, N-(4,4-diphenyl-3-buten-1-yl)nipecotic acid] |  | orally active inhibitors of GABA uptake | 
O=C(O)C1=CCCN(CCC=C(c2ccccc2)c2ccccc2)C1 [SK&F 100330A, N-(4,4-diphenyl-3-buten-1-yl)guvacine] |  | orally active inhibitors of GABA uptake | 
O=C(O)CC1CCN(CCC=C(c2ccccc2)c2ccccc2)C1 (stereo not drawn) [SK&F 100561, N-(4,4-diphenyl-3-buten-1-yl)-homo-β-proline] |  | orally active inhibitors of GABA uptake | 
O=C(O)C1CCCN(CCC=C(c2ccccc2)c2cccs2)C1 (centres unmarked) [SK&F 100604J, N-(4-phenyl-4-(2-thienyl)-3-buten-1-yl)nipecotic acid] |  | orally active inhibitors of GABA uptake | 
(R)-1-(2-(((2-(Benzylidene)cyclohexylidene)amino)oxy)ethyl)-3-piperidinecarboxylic acid hydrochloride [Example 3] | 9500 |  | 
